# How the values were obtained:
# Conditions in all cases: COS-7
# CLR = CLR (Homo sapiens, UniProt Q16602); test: cAMP accumulation
# CLR/RAMP3 [1] = biological target: T1, CLR/RAMP3 (Homo sapiens, UniProt O60896+Q16602); test: β-Arrestin2 recruitment
# CLR/RAMP3 [2] = biological target: T1, CLR/RAMP3; test: β-Arrestin1 recruitment
# T1 sequence (Q16602 23-461): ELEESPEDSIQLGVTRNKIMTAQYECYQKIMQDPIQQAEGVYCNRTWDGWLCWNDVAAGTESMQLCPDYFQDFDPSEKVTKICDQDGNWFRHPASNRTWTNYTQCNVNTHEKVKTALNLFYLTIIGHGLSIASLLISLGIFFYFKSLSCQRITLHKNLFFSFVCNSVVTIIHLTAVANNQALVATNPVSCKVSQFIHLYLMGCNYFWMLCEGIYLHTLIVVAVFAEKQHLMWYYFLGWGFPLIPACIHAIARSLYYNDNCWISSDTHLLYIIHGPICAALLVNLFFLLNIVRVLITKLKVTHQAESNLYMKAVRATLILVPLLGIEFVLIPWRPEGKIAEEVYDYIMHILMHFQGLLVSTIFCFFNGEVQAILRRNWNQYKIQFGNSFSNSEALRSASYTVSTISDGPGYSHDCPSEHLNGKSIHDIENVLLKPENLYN
# T1 sequence (O60896 24-148): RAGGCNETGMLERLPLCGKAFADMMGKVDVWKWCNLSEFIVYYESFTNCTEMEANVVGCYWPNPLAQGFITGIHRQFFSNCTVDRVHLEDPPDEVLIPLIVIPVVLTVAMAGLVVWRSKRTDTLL
# Sequence of CLR (Q16602 23-461): as the sequence (Q16602 23-461) above
structure (smiles),measurement,setting,value
"CC[C@H](C)[C@H](NC(=O)[C@H](CCC(N)=O)NC(=O)[C@H](Cc1c[nH]cn1)NC(=O)[C@H](C)NC(=O)[C@H](CC(C)C)NC(=O)[C@H](CCCCN)NC(=O)[C@H](CCC(N)=O)NC(=O)[C@@H](NC(=O)[C@@H](NC(=O)[C@@H]1CSSC[C@H](NC(=O)CNC(=O)[C@H](Cc2ccccc2)NC(=O)[C@H](CO)NC(=O)[C@H](CCCNC(=N)N)NC(=O)[C@H](CC(C)C)NC(=O)CNC(=O)[C@H](CCC(N)=O)NC(=O)[C@H](Cc2ccccc2)NC(=O)[C@H](CC(N)=O)NC(=O)[C@H](CC(N)=O)NC(=O)[C@H](CCSC)NC(=O)[C@H](CO)NC(=O)[C@H](CCC(N)=O)NC(=O)[C@H](CCCNC(=N)N)NC(=O)[C@@H](N)Cc2ccc(O)cc2)C(=O)N[C@@H](CCCNC(=N)N)C(=O)N[C@@H](Cc2ccccc2)C(=O)NCC(=O)N[C@@H]([C@@H](C)O)C(=O)N1)[C@@H](C)O)C(C)C)C(=O)N[C@@H](Cc1ccc(O)cc1)C(=O)N[C@@H](CCC(N)=O)C(=O)N[C@@H](Cc1ccccc1)C(=O)N[C@H](C(=O)N[C@@H](CC(=O)O)C(=O)N[C@@H](CCCCN)C(=O)N[C@@H](CC(=O)O)C(=O)N[C@@H](CCCCN)C(=O)N[C@@H](CC(=O)O)C(=O)N[C@@H](CC(N)=O)C(=O)N[C@H](C(=O)N[C@@H](C)C(=O)N1CCC[C@H]1C(=O)N[C@@H](CCCNC(=N)N)C(=O)N[C@@H](CO)C(=O)N[C@@H](CCCCN)C(=O)N[C@H](C(=O)N[C@@H](CO)C(=O)N1CCC[C@H]1C(=O)N[C@@H](CCC(N)=O)C(=O)NCC(=O)N[C@@H](Cc1ccc(O)cc1)C(N)=O)[C@@H](C)CC)C(C)C)[C@@H](C)O [Adrenomedullin, adrenomedullin]",Emax,CLR,46.3 ± 2.9%
same,Emax,CLR/RAMP3 [1],58.4 ± 10.9%
same,Emax,CLR/RAMP3 [2],17.9 ± 11.7%
